Where two headings read alike, the source gives them in different places.
Legend:
[1] = target: BCL6-NCOR2(SMRT) corepressor protein-protein interaction (Homo sapiens (Human), UniProt P41182); test: NanoBRET cell assay; type: cell-based; conditions: transfected HEK293T cells, 6 hr; for IC50: read-out: NanoBRET cell pIC50 (converted)
Description: A cellular nano-Bioluminescence Resonance Energy Transfer (nanoBRET) assay (Promega NanoBRET Nano-Glo Detection System, catalogue number N1662) was used to detect inhibition of the BCL6-NCOR2(SMRT) corepressor protein-protein interaction. DNA encoding full length BCL6 and NCOR2 were inserted into pFC32K.NanoLuc and pFC14K.HaloTag vectors (Promega) to produce C-terminal tagged fusion proteins BCL6-nanoLuc and NCOR2-HaloTag, respectively. HEK293T cells were plated (5×10^5) in T75 tissue culture flask and bulk transfected 48 hours later with Fugene 6 (Promega cat. #E2691) reagent and 18 μg total DNA plasmids encoding BCL6-nanoLuc as donor and NCOR2-HaloTag as acceptor, at a donor:acceptor DNA ratio of 1:25. At 24 hr post-transfection, HEK293T cells were collected and stored in liquid nitrogen in 90% FBS (PAN Biotech UK) and 10% DMSO. […] Frozen transfected HEK293T cells were thawed, centrifuged and freezing medium was replaced by phenol red-free OptiMEM+4% FBS (Life Technology). […] Cells were incubated for 6 hr at 37° C./5% C02 then NanoBRET furimazine substrate (Promega) was added to give a final concentration of 10 μM. After a short centrifugation the plates were read on an Envision (Perkin Elmer) plate reader equipped with a LUM/D600 Dual mirror, Lum 450/40 nm bandpass and D605 nm longpass filters, with a 0.2 sec reading to determine the BRET ratio. The % inhibition at each test concentration was calculated by normalising the BRET ratio to the appropriate high and low controls.

[2] = target: Trx-6×His-BCL6 (human BCL6 BTB domain covering amino-acid sequence 5-129) (Homo sapiens (Human), UniProt P41182); test: HTRF in vitro assay (BCL6 / BCOR-AF633 peptide); type: binding; conditions: for activity in the HTRF assay: result in words
Description: The % inhibition at each concentration was calculated by normalising FRET ratio to the appropriate high (DMSO with all reagents) and low (DMSO without BCL6) controls.

[3] = initially generated data, 10 nM Trx-6×His-BCL6, 300 nM BCOR-AF633 peptide, 1 nM anti-6×His-Terbium cryptate
[4] = further generated data, 1 nM Trx-6×His-BCL6, 300 nM BCOR-AF633 peptide, 0.5 nM anti-6×His-Terbium cryptate

Row | SMILES | HTRF pIC50 [2, 3] | HTRF pIC50 [2, 4] | other results
1 | Cc1cc(Nc2ccc3c(c2)n(CCC(C)(C)O)c(=O)n3C)c(C#N)c(Cl)n1 [Example 1b, 2-chloro-4-[[3-(3-hydroxy-3-methyl-butyl)-1-methyl-2-oxo-benzimidazol-5-yl]amino]-6-methyl-pyridine-3-carbonitrile] | 6.09 | – | NanoBRET cell pIC50 ([1]; further generated data): 5.28; IC50 ([1]; initially generated data): 5.25 µM
2 | CNC(=O)c1cc(Nc2ccc3c(c2)n(CC[C@@H](C)O)c(=O)n3C)c(C#N)c(Cl)n1 [Example 4, 6-Chloro-5-cyano-4-[[3-[(3R)-3-hydroxybutyl]-1-methyl-2-oxo-benzimidazol-5-yl]amino]-N-methyl-pyridine-2-carboxamide] | 5.99 | 5.79 | NanoBRET cell pIC50 ([1]; further generated data): 5.20; IC50 ([1]; initially generated data): 6.31 µM
3 | CN(C)C(=O)C1CCN(c2ncc(Cl)c(Nc3ccc4c(c3)n(CCC(C)(C)O)c(=O)n4C)n2)CC1 [Example 20c] | – | 6.60 | IC50 ([1]; further generated data): 2.14 µM
4 | Cn1c(=O)n(CCC(C)(C)O)c2cc(Nc3nc(N4CCOC(C(F)(F)F)C4)ncc3Cl)ccc21 (stereo not shown) [Example 28b, 5-((5-chloro-2-(2-(trifluoromethyl)morpholino)pyrimidin-4-yl)amino)-3-(3-hydroxy-3-methylbutyl)-1-methyl-1,3-dihydro-2H-benzo[d]imidazol-2-one] | – | 6.55 | IC50 ([1]; further generated data): 2.19 µM
5 | CNC(=O)c1cc(Nc2ccc3c(c2)[nH]c(=O)n3C)c(C#N)c(Cl)n1 [Example 1f, 6-chloro-5-cyano-N-methyl-4-[(1-methyl-2-oxo-3H-benzimidazol-5-yl)amino]pyridine-2-carboxamide] | 5.84 | 5.59 | –
6 | Cn1ncc2c1CN(c1ncc(Cl)c(Nc3ccc4c(c3)n(CCC(C)(C)O)c(=O)n4C)n1)CC2 [Example 42f, 5-((5-chloro-2-(1-methyl-1,4,5,7-tetrahydro-6H-pyrazolo[3,4-c]pyridin-6-yl)pyrimidin-4-yl)amino)-3-(3-hydroxy-3-methylbutyl)-1-methyl-1,3-dihydro-2H-benzo[d]imidazol-2-one] | – | 6.58 | –
7 | Cn1c(=O)n(CCC(C)(C)O)c2cc(Nc3nc(N4CCCCC4)ncc3Cl)ccc21 [Example 20d] | – | 5.92 | –
8 | Cc1cc(Nc2ccc3c(c2)n(CC[C@@H](C)O)c(=O)n3C)c(C#N)c(Cl)n1 [Example 1l, 2-chloro-4-[[3-[(3R)-3-hydroxybutyl]-1-methyl-2-oxo-benzimidazol-5-yl]amino]-6-methyl-pyridine-3-carbonitrile] | 5.62 | 5.53 | –
9 | Cc1ccnn1-c1ncc(Cl)c(Nc2ccc3c(c2)n(CCC(C)(C)O)c(=O)n3C)n1 [Example 16b, 5-((5-chloro-2-(5-methyl-1H-pyrazol-1-yl)pyrimidin-4-yl)amino)-3-(3-hydroxy-3-methylbutyl)-1-methyl-1,3-dihydro-2H-benzo[d]imidazol-2-one] | – | 6.31 | –
10 | CCOC(=O)c1cc(Nc2ccc3c(c2)n(CC[C@@H](C)O)c(=O)n3C)c(C#N)c(Cl)n1 [Example 2d, Ethyl 6-chloro-5-cyano-4-[[3-[(3R)-3-hydroxybutyl]-1-methyl-2-oxo-benzimidazol-5-yl]amino]pyridine-2-carboxylate] | 6.17 | 5.87 | –
11 | COC(=O)C(O)CCn1c(=O)n(C)c2ccc(Nc3ccnc(Cl)c3C#N)cc21 (stereo not shown) [Example 9, Methyl 4-[6-[(2-chloro-3-cyano-4-pyridyl)amino]-3-methyl-2-oxo-benzimidazol-1-yl]-2-hydroxy-butanoate] | 5.83 | 5.97 | –
12 | Cn1c(=O)n(C[C@@H]2CCC[C@]2(C)O)c2cc(Nc3ccnc(Cl)c3C#N)ccc21 [Example 22n] | – | 5.90 | –
13 | Cn1c(=O)n(CCC(C)(C)O)c2cc(Nc3cc(N4CCC(F)(F)CC4)ncc3Cl)ncc21 [6-((5-chloro-2-(4,4-difluoropiperidin-1-yl)pyridin-4-yl)amino)-1-(3-hydroxy-3-methylbutyl)-3-methyl-1,3-dihydro-2H-imidazo[4,5-c]pyridin-2-one] | – | – | activity in the HTRF assay [2]: did not exhibit the desired activity
14 | Cn1c(=O)n(CCC(C)(C)O)c2cc(Nc3nc(N4CCC5(CC4)CC(F)(F)C5)ncc3Cl)ccc21 [Example 35f, 5-((5-chloro-2-(2,2-difluoro-7-azaspiro[3.5]nonan-7-yl)pyrimidin-4-yl)amino)-3-(3-hydroxy-3-methylbutyl)-1-methyl-1,3-dihydro-2H-benzo[d]imidazol-2-one] | – | 6.05 | –
15 | C[C@@H]1CN(c2ncc(Cl)c(Nc3ccc4c(c3)n(CCC(C)(C)O)c(=O)n4CCN3CCOCC3)n2)C[C@H](C)C1(F)F [Example 37b, 5-((5-chloro-2-((3S,5R)-4,4-difluoro-3,5-dimethylpiperidin-1-yl)pyrimidin-4-yl)amino)-3-(3-hydroxy-3-methylbutyl)-1-(2-morpholinoethyl)-1,3-dihydro-2H-benzo[d]imidazol-2-one] | – | 6.47 | –
16 | Cn1c(=O)n(CCC(C)(C)O)c2cc(Nc3nc(N4CCCC(C#N)C4)ncc3Cl)ccc21 (stereo not shown) [Example 42b, 1-(5-chloro-4-((3-(3-hydroxy-3-methylbutyl)-1-methyl-2-oxo-2,3-dihydro-1H-benzo[d]imidazol-5-yl)amino)pyrimidin-2-yl)piperidine-3-carbonitrile] | – | 6.46 | –
17 | Cn1c(=O)n(CCC(C)(C)O)c2cc(Nc3ccncc3Cl)ncc21 [6-((3-chloropyridin-4-yl)amino)-1-(3-hydroxy-3-methylbutyl)-3-methyl-1,3-dihydro-2H-imidazo[4,5-c]pyridin-2-one] | – | – | activity in the HTRF assay [2]: did not exhibit the desired activity
18 | Cn1c(=O)n(CCC(C)(C)O)c2cc(Nc3nc(N4CCC(F)(F)CC4)ncc3Cl)ncc21 [6-((5-chloro-2-(4,4-difluoropiperidin-1-yl)pyrimidin-4-yl)amino)-1-(3-hydroxy-3-methylbutyl)-3-methyl-1,3-dihydro-2H-imidazo[4,5-c]pyridin-2-one] | – | – | activity in the HTRF assay [2]: did not exhibit the desired activity
19 | Cn1c(=O)n(CCC(C)(C)O)c2cc(Nc3ccnc(Cl)c3C(F)(F)F)ccc21 [5-((2-chloro-3-(trifluoromethyl)pyridin-4-yl)amino)-3-(3-hydroxy-3-methylbutyl)-1-methyl-1,3-dihydro-2H-benzo[d]imidazol-2-one] | – | – | activity in the HTRF assay [2]: did not exhibit the desired activity
20 | Cn1c(=O)n(CCC(C)(C)O)c2cc(Nc3ccnc(Cl)c3C(F)F)ccc21 [5-((2-chloro-3-(difluoromethyl)pyridin-4-yl)amino)-3-(3-hydroxy-3-methylbutyl)-1-methyl-1,3-dihydro-2H-benzo[d]imidazol-2-one] | – | – | activity in the HTRF assay [2]: did not exhibit the desired activity
21 | COC(=O)C(C)CCn1c(=O)n(C)c2ccc(Nc3cc(C(=O)OC(C)C)nc(Cl)c3C#N)cc21 (stereo not shown) [Example 2c, Isopropyl 6-chloro-5-cyano-4-[[3-(4-methoxy-3-methyl-4-oxo-butyl)-1-methyl-2-oxo-benzimidazol-5-yl]amino]pyridine-2-carboxylate] | 6.10 | – | –
22 | C[C@@H]1CN(c2ncc(Cl)c(Nc3cnc4c(c3)n(CCC(C)(C)O)c(=O)n4CCC(C)(C)O)n2)C[C@H](C)C1(F)F [Example 35r, 6-((5-chloro-2-((3R,5S)-4,4-difluoro-3,5-dimethylpiperidin-1-yl)pyrimidin-4-yl)amino)-1,3-bis(3-hydroxy-3-methylbutyl)-1,3-dihydro-2H-imidazo[4,5-b]pyridin-2-one] | – | 5.98 | –
23 | COC(=O)C(C)CCn1c(=O)n(C)c2ccc(Nc3ccnc(Cl)c3C#N)cc21 (stereo not shown) [Example 1j, Methyl 4-[6-[(2-chloro-3-cyano-4-pyridyl)amino]-3-methyl-2-oxo-benzimidazol-1-yl]-2-methyl-butanoate] | 5.67 | 5.78 | –
24 | Cn1c(=O)n(CCC(C)(C)O)c2cc(Nc3nc(N4CC5CCC(C4)C5(F)F)ncc3Cl)ccc21 [Example 35s, 5-((5-chloro-2-(8,8-difluoro-3-azabicyclo[3.2.1]octan-3-yl)pyrimidin-4-yl)amino)-3-(3-hydroxy-3-methylbutyl)-1-methyl-1,3-dihydro-2H-benzo[d]imidazol-2-one] | – | 6.16 | –
25 | CCC(C)(O)Cn1c(=O)n(C)c2ccc(Nc3ccnc(Cl)c3C#N)cc21 (stereo not shown) [2-chloro-4-((3-(2-hydroxy-2-methylbutyl)-1-methyl-2-oxo-2,3-dihydro-1H-benzo[d]imidazol-5-yl)amino)nicotinonitrile] | – | – | activity in the HTRF assay [2]: did not exhibit the desired activity
